# Experimental data reported in patent publication US12172959B2, “Mono- or di-substituted indole derivatives as dengue viral replication inhibitors” (priority 2015, dated 2024).
# Tests used:
# in vitro = type: cell-based; conditions: African green monkey, CC50
# Procedure: (§1) Potential cytotoxic effects of the compounds were evaluated in uninfected quiescent Vero-B or Vero-M cells. Cells were seeded at 5×10^4 cells/well in a 96-well plate in the presence of two-, three- or five-fold serial dilutions (ranging from 50 μg/mL-0.0038 μg/mL, 50 μg/mL-0.0076 μg/mL, and 50 μg/mL-0.00013 μg/mL, respectively) of compound and incubated for 4 to 7 days. Culture medium was discarded and 100 μL 3-(4,5-dimethylthiazol-2-yl)-5-(3-carboxy-methoxyphenyl)-2-(4-sulfophenyl)-2H-tetrazolium/phenazinemethosulfate (MTS/PMS; Promega, Leiden, The Netherlands) in PBS was added to each well. Following a 2-hour incubation period at 37° C., the optical density was determined at 498 nm. Cytotoxic activity was calculated using the following formula: % cell viability=100×(ODCompound/ODCC), where ODCompound and ODCC correspond to the optical density at 498 nm of the uninfected cell cultures treated with compound and that of uninfected, untreated cell cultures, respectively. The 50% cytotoxic concentration (i.e., the concentration that reduces the total cell number with 50%; CC50) was calculated using linear interpolation.
# [1] = test system: uninfected quiescent Vero-B or Vero-M cells; experiment: in vitro; type: cell-based; conditions: African green monkey
# Procedure: as §1
# DENV-2 16681 strain = experiment: DENV-2 antiviral assay (eGFP fluorescence, Vero cells); type: cell-based, Dengue virus; conditions: DENV-2 16681 eGFP, MOI 0.5, 3 days
# Method in brief: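 eGFP-labelled DENV-2 16681 infected Vero cells (2500/well, MEM + 2% FCS) at MOI 0.5, one day after seeding onto 9-step 5-fold compound dilutions. After 3 days at 37 °C, eGFP fluorescence read at 488 nm; % inhibition normalised to virus and cell controls, EC50 by linear interpolation.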
SMILES,CC50 (in vitro) [µM],CC50 [1] [µM],EC50 (DENV-2 16681 strain) [nM]
"COc1cc(NC(C(=O)c2c[nH]c3cc(F)ccc23)c2ccc(Cl)cc2OC)cc(S(C)(=O)=O)c1 (single isomer, unassigned) [Compound 1A, 2-(4-chloro-2-methoxyphenyl)-1-(6-fluoro-1H-indol-3-yl)-2-((3-methoxy-5-(methylsulfonyl)phenyl)amino)ethanone]",8,11,0.26
"COc1cc(NC(C(=O)c2c[nH]c3c(C)c(F)ccc23)c2ccc(Cl)cc2OC)cc(S(C)(=O)=O)c1 (single isomer, unassigned) [Compound 2A, 2-(4-chloro-2-methoxyphenyl)-1-(6-fluoro-7-methyl-1H-indol-3-yl)-2-((3-methoxy-5-(methylsulfonyl)phenyl)amino)ethanone]",7.3,11,0.26
"COc1cc(NC(C(=O)c2c[nH]c3cc(OC)c(C)cc23)c2ccc(Cl)cc2OC)cc(S(C)(=O)=O)c1 (single isomer, unassigned) [Compound 4A, 2-(4-chloro-2-methoxyphenyl)-2-((3-methoxy-5-(methyl-sulfonyl)phenyl)amino)-1-(6-methoxy-5-methyl-1H-indol-3-yl)ethanone]",4.3,6.6,0.27
"COc1cc(NC(C(=O)c2c[nH]c3cc(OC)c(F)cc23)c2ccc(Cl)cc2OC)cc(S(C)(=O)=O)c1 (single isomer, unassigned) [Compound 5A, 2-(4-chloro-2-methoxyphenyl)-1-(5-fluoro-6-methoxy-1H-indol-3-yl)-2-((3-methoxy-5-(methylsulfonyl)phenyl)amino)ethanone]",9.2,,0.41
"COc1cc(NC(C(=O)c2c[nH]c3c(C)c(OC)ccc23)c2ccc(Cl)cc2OC)cc(S(C)(=O)=O)c1 (single isomer, unassigned) [Compound 6A, 2-(4-chloro-2-methoxyphenyl)-2-((3-methoxy-5-(methyl-sulfonyl)phenyl)amino)-1-(6-methoxy-7-methyl-1H-indol-3-yl)ethanone]",> 92,> 92,0.068
